In ChEMBL document CHEMBL1145498, “A systematic interaction map of validated kinase inhibitors with Ser/Thr kinases” (Proc Natl Acad Sci U S A, 2007):

Columns and labels:
[1] = target: Serine/threonine-protein kinase PLK1 (Homo sapiens) (UniProt P53350)
[2] = target: T1, Serine/threonine-protein kinase 17A (Homo sapiens) (UniProt Q9UEE5)
T1 sequence (whole entry): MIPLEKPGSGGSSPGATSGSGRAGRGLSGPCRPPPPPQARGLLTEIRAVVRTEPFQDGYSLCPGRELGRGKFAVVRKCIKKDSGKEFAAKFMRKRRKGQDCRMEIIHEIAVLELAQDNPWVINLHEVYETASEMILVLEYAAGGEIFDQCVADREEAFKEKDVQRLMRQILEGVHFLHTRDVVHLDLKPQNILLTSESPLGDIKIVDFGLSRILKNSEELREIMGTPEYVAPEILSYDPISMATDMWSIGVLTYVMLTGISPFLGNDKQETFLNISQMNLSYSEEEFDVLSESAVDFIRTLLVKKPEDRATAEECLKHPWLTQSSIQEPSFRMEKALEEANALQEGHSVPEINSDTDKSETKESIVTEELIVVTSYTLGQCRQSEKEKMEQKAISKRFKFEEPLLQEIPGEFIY

[3] = target: Calcium/calmodulin-dependent protein kinase kinase 2 (Homo sapiens, UniProt Q96RR4)
[4] = target: Serine/threonine-protein kinase 26 (Homo sapiens) (UniProt Q9P289)
[5] = target: Serine/threonine-protein kinase pim-2 (Homo sapiens, UniProt Q9P1W9)
[6] = target: cAMP-dependent protein kinase catalytic subunit alpha (Homo sapiens) (UniProt P17612)
[7] = target: Serine/threonine-protein kinase Nek6 (Homo sapiens) (UniProt Q9HC98)
[8] = target: Serine/threonine-protein kinase 10 (Homo sapiens) (UniProt O94804)
[9] = target: Dual specificity protein kinase CLK3 (Homo sapiens) (UniProt P49761)
[10] = target: Serine/threonine-protein kinase PAK 6 (Homo sapiens) (UniProt Q9NQU5)
[11] = target: Casein kinase I isoform gamma-2 (Homo sapiens) (UniProt P78368)
[12] = target: STE20-like serine/threonine-protein kinase (Homo sapiens) (UniProt Q9H2G2)
[13] = target: T2, Lymphokine-activated killer T-cell-originated protein kinase (Homo sapiens) (UniProt Q96KB5)
T2 sequence (whole entry): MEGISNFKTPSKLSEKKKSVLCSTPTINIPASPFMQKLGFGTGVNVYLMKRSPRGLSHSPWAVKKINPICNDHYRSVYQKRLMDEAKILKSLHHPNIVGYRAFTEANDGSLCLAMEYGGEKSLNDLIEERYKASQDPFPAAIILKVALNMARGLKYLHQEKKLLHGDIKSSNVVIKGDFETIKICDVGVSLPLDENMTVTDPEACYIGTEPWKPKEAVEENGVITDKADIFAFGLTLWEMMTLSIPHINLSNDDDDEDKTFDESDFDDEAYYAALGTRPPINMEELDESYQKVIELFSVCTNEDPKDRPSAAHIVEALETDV

[14] = target: Serine/threonine-protein kinase Chk2 (Homo sapiens, UniProt O96017)
[15] = target: T3, Dual specificity mitogen-activated protein kinase kinase 6 (Homo sapiens) (UniProt P52564)
T3 sequence (whole entry): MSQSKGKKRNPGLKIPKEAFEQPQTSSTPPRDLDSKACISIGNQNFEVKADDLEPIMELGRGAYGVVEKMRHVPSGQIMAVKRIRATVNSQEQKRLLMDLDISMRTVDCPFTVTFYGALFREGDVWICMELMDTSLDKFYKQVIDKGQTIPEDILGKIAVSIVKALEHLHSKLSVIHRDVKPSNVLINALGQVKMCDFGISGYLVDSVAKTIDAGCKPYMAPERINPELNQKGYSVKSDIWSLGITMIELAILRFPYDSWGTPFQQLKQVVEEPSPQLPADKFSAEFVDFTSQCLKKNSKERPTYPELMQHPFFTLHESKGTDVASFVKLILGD

[16] = target: Calcium/calmodulin-dependent protein kinase type II subunit alpha (Homo sapiens) (UniProt Q9UQM7)

Chain of Serine/threonine-protein kinase Chk2 (O96017 whole entry): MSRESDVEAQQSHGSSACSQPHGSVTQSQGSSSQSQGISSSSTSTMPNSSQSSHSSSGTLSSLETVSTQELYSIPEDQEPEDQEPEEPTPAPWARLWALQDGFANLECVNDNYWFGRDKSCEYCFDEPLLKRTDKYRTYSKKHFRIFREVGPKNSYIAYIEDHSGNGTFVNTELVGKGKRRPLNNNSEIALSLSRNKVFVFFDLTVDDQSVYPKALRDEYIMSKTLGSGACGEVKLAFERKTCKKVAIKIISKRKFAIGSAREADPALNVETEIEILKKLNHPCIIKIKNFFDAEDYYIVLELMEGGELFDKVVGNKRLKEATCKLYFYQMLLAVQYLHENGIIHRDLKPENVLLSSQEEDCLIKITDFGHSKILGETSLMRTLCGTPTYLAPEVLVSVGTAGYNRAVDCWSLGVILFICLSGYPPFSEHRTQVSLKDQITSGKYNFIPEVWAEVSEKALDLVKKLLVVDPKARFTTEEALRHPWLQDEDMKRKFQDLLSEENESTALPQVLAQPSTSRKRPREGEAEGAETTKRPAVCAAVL
Chain of Casein kinase I isoform gamma-2 (Homo sapiens) (P78368 whole entry, looked up, canonical isoform): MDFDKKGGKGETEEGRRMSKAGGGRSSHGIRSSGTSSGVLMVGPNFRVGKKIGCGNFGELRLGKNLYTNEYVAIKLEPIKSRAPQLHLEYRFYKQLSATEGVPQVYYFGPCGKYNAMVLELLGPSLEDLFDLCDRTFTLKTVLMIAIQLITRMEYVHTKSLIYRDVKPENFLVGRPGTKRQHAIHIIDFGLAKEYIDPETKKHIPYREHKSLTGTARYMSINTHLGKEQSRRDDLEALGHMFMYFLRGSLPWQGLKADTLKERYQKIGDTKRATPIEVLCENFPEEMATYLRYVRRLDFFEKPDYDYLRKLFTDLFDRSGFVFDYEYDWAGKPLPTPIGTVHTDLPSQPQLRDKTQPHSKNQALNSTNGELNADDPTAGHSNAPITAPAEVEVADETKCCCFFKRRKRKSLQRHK
Chain of Serine/threonine-protein kinase 10 (Homo sapiens) (O94804 whole entry, looked up): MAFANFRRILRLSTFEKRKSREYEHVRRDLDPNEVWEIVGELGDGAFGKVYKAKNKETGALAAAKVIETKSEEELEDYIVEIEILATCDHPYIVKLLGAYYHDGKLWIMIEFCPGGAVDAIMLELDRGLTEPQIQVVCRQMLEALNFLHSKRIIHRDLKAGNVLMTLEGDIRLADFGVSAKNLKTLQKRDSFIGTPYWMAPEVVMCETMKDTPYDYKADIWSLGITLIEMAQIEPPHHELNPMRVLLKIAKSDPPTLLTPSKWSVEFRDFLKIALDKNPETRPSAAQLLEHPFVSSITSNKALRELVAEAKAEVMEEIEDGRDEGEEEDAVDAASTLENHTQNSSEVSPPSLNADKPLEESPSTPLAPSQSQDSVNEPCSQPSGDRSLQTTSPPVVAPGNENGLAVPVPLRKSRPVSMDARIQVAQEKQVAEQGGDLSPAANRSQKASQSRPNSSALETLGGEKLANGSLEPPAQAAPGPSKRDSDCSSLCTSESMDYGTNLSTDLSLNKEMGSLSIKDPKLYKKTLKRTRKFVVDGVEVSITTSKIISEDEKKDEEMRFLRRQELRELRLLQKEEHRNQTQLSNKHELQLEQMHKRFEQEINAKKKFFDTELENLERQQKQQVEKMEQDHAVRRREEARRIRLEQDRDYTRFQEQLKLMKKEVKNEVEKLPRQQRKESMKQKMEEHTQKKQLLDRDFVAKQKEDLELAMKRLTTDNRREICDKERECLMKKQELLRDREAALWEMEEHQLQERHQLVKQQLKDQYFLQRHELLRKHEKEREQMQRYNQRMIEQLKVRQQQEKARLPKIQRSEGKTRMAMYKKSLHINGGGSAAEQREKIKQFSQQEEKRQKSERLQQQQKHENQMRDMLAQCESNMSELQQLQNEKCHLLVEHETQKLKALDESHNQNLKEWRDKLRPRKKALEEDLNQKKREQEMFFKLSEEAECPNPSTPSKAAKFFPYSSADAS
Chain of Serine/threonine-protein kinase PAK 6 (Homo sapiens) (Q9NQU5 whole entry, looked up, canonical isoform): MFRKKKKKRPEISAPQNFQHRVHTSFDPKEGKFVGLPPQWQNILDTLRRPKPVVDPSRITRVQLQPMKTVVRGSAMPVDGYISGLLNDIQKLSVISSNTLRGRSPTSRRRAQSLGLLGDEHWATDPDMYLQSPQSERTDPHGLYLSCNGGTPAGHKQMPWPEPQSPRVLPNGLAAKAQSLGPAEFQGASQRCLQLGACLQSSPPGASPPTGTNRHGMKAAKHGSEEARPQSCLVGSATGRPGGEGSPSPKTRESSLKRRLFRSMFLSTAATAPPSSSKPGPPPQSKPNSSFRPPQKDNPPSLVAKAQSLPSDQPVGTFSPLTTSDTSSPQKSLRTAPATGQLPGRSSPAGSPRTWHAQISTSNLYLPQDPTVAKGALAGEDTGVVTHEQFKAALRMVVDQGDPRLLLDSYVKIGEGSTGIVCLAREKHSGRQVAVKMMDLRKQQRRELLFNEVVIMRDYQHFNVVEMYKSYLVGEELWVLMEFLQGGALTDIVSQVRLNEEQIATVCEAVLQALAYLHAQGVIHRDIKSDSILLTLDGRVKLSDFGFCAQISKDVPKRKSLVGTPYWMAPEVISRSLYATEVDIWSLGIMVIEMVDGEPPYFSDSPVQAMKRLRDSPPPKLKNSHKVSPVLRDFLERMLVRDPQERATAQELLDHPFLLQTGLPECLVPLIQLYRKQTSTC
Chain of Dual specificity protein kinase CLK3 (Homo sapiens) (P49761 whole entry, looked up): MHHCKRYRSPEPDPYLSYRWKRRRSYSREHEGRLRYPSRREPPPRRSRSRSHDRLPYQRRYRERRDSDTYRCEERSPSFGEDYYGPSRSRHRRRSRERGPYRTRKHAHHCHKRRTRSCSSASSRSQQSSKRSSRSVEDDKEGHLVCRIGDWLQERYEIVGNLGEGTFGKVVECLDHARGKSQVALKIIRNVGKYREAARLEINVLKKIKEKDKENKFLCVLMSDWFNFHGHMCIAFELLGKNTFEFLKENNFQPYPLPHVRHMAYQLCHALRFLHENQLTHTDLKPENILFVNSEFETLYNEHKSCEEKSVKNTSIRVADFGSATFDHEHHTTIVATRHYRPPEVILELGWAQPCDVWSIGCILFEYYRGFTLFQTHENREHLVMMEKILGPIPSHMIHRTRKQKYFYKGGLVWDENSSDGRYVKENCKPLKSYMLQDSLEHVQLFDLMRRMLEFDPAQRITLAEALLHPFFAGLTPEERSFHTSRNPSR
Chain of Serine/threonine-protein kinase Nek6 (Homo sapiens) (Q9HC98 whole entry): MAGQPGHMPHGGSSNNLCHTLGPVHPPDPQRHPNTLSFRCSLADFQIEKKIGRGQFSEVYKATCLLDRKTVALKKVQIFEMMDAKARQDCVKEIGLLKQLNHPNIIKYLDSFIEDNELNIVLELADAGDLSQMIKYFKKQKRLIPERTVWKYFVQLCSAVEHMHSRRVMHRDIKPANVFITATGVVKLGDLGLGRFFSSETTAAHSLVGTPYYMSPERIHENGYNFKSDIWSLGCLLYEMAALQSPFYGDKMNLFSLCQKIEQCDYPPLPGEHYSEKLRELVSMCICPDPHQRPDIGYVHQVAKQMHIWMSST
Chain of Serine/threonine-protein kinase PLK1 (Homo sapiens) (P53350 whole entry): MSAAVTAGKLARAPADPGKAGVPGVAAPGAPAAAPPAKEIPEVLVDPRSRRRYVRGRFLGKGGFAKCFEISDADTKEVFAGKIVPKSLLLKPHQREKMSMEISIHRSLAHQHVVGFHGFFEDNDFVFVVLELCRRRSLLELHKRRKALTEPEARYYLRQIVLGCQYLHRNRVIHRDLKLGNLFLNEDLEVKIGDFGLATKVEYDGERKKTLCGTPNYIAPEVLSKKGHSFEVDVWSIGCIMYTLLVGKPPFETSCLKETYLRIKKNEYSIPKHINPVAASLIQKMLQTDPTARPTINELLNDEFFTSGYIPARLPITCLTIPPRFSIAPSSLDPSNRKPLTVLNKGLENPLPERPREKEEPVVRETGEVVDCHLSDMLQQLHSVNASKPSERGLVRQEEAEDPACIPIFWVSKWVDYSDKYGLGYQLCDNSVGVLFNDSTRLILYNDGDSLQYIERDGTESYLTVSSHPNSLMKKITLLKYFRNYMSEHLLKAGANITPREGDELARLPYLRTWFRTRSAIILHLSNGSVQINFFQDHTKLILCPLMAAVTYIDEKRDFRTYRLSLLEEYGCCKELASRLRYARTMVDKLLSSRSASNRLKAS
Chain of Calcium/calmodulin-dependent protein kinase kinase 2 (Q96RR4 2-588 limits assumed): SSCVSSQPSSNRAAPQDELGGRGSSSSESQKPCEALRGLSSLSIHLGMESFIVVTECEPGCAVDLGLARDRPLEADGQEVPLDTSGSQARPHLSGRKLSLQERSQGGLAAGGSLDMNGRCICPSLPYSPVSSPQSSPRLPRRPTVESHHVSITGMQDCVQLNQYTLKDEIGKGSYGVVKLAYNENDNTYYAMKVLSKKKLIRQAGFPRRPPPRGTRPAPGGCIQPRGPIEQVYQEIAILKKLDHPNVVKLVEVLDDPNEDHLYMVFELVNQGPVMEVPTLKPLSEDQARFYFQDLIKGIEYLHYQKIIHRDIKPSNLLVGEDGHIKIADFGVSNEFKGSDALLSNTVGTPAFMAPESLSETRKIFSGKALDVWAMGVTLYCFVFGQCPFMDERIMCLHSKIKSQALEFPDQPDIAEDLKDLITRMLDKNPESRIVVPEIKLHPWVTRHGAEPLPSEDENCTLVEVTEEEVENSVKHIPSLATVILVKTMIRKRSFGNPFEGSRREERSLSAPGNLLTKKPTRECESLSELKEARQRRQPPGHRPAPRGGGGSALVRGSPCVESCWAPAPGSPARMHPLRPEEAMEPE
Chain of Serine/threonine-protein kinase pim-2 (Q9P1W9 whole entry, looked up): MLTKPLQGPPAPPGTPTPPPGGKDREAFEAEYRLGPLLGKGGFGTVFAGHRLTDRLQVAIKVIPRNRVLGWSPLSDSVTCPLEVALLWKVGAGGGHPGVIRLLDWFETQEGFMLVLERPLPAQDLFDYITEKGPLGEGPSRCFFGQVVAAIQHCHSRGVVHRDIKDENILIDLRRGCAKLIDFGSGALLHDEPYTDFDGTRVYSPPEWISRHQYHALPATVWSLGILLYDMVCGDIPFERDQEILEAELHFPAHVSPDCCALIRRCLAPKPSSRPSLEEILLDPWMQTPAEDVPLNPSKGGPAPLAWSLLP

| SMILES | ΔTm [1] [°C] | ΔTm [2] [°C] | ΔTm [3] [°C] | ΔTm [4] [°C] | ΔTm [5] [°C] | ΔTm [6] [°C] | ΔTm [7] [°C] | ΔTm [8] [°C] | ΔTm [9] [°C] | ΔTm [10] [°C] | ΔTm [11] [°C] | ΔTm [12] [°C] | ΔTm [13] [°C] | ΔTm [14] [°C] | ΔTm [15] [°C] | ΔTm [16] [°C] |
| --- | --- | --- | --- | --- | --- | --- | --- | --- | --- | --- | --- | --- | --- | --- | --- | --- |
| Nc1ncnc2c1c(I)cn2[C@@H]1O[C@H](CO)[C@@H](O)[C@H]1O | 1 | 2.8 | 2 | 2.1 | 1 | 1.3 | -0.2 | 4.7 | 7.3 | 1.1 | 3.7 | 4.2 | 0 | 0.9 | 2.7 | 0.7 |
| Ic1cccc(CSc2nnc(-c3ccncc3)o2)c1 | -0.9 | 0.3 | -0.6 | -0.6 | 0.1 | 0.3 | -0.8 | 1.4 | 1.5 | 0.2 | 0.5 | -0.4 | 0.3 | -0.9 | 0.3 | -0.6 |
| O=Nc1c(-c2c(O)[nH]c3ccccc23)[nH]c2ccccc12 | 0.2 | 8.9 | 4.3 | 2.7 | 0 | 3.8 | 0.1 | 4.2 | 2.7 | 1.7 | 1.3 | 3.9 | 0.5 | 3.1 | 3.6 | 3.9 |
| N#C/C(=C\c1ccc(O)c(O)c1)C(=O)NCc1ccccc1 | 0.7 | 4.4 | 0.2 | 0 | 1.9 | 0.6 | 1 | 0.7 | 0.5 | -0.4 | 0.7 | 2.9 | 0.7 | 0.4 | 0.4 | 0.4 |
| CCOc1cc(/C=C(\C#N)C(N)=O)cc(CSc2ccccc2)c1O | 1.9 | 0.6 | -0.1 | -0.5 | 0.1 | 1 | -0.1 | 1.1 | 0.3 | -0.4 | 0.7 | 0.5 | 0.5 | 0 | 1.6 | -0.2 |
| CC(C)n1cnc2c(NCc3ccccc3)nc(NCCCO)nc21 | 1.8 | 0 | 2 | 0.1 | 0.2 | 0.3 | 0.4 | -0.4 | 1 | 0.6 | 1.1 | 0.4 | 0.2 | 0.5 | 0 | 1.8 |
| Oc1ccc(-c2nc(-c3ccc(F)cc3)c(-c3ccncc3)[nH]2)cc1 | 0.1 | 1 | -0.2 | -0.4 | 0.8 | 2.6 | 0.4 | 4.4 | -0.1 | -0.2 | 0.8 | 4.4 | 0.3 | -0.2 | 0.3 | 0.4 |
| O=C1c2ccccc2-c2n[nH]c3cccc1c23 | 1.6 | 10 | 2.4 | 3.3 | 3.6 | 2.3 | 0.9 | 2.8 | 2 | 1.8 | 2.5 | 2.2 | 0.8 | 6 | 4.7 | 0.8 |
| O=C1Nc2cc(Br)ccc2/C1=C1/Nc2ccccc2/C1=N\O | 0.1 | 1.9 | 6.3 | 4.1 | 0.4 | 0.5 | -0.4 | 7.7 | -0.8 | 3.4 | 0.3 | 4.4 | 1.1 | 2.3 | 0.2 | 0.1 |
| O=C1Nc2ccccc2/C1=C1/Nc2ccccc2/C1=N\O | 1.6 | 9.9 | 5.9 | 7 | 2.8 | 4 | 1.2 | 6.2 | 4 | 2.9 | 2.6 | 4.7 | 0 | 4.9 | 6.4 | 6.1 |
| O=C(O)Cc1ccc(O)c([N+](=O)[O-])c1 | 0.4 | -0.5 | -0.1 | 1.1 | -0.1 | -0.9 | 0.5 | 0 | -0.6 | -0.9 | 1 | 0 | 0.6 | -0.8 | 0 | 1.4 |
| COc1ccc(COc2ccc(Cc3cnc(N)nc3N)cc2OC)cc1 | -1 | -0.4 | -0.1 | 0 | 0.2 | -0.2 | -0.2 | -0.5 | 0.1 | 0.1 | -0.2 | 0.1 | -0.1 | 0.1 | 0.1 | -0.1 |
| COc1ccc(CNC(=O)Nc2ncc([N+](=O)[O-])s2)cc1 | 0.7 | 0.5 | 0 | 1.5 | 0.2 | 1 | 0.4 | 1.1 | 0.4 | 0.5 | 0.1 | 0.7 | 0.3 | 0.4 | 0.2 | -0.1 |
| O=C(O)c1cc(NCc2cc(O)ccc2O)ccc1O | 0.3 | 0.1 | 0.8 | -0.1 | 0.7 | -0.2 | 0 | -0.3 | 0.2 | -0.1 | 0.3 | -0.5 | 0 | 0 | -0.2 | 0.4 |
| Nc1nc(Nc2ccc(S(N)(=O)=O)cc2)nn1C(=S)Nc1c(F)cccc1F | 4.3 | 12.6 | 8.6 | 8.3 | 0.6 | 4.1 | 0.2 | 15.5 | 14.7 | 5.6 | 4.9 | 12.1 | -0.2 | 8.6 | 7.6 | 3.3 |
| CC(C)N(CCO)c1nc(Nc2cccc(Cl)c2)c2ncn(C(C)C)c2n1 | 3.3 | -0.1 | 2.8 | 0.7 | 0.2 | 1.6 | -0.2 | 3.3 | 4.2 | 5.3 | 3.8 | 2.9 | 0 | 0.6 | 0.9 | 0.5 |
